Experiment: in vitro
Conditions: human, hela cells, % viability

| SMILES | viability at 28.5 h, 10 µM [%] |
| --- | --- |
| COc1ccc(C(O)c2coc3ccc(O)c(CN(C)C)c23)cc1 (stereo not drawn) [CBK263083] | 96.4 |
| Cc1ccc(C(=O)c2coc3ccc(OCC(=O)O)cc23)cc1 [CBK263084] | 86.6 |
| O=C(O)c1ccc(N2C(=O)/C(=C/c3c[nH]c4ccccc34)SC2=S)cc1 [CBK263085] | 90.4 |
| O=C(Cc1n[nH]c(=O)[nH]c1=O)N/N=C/c1cccc(Br)c1 [CBK263086] | 83 |
| COCCCNC(NC(=O)c1ccc(C)cc1)C(Cl)(Cl)Cl (stereo not drawn) [CBK263087] | 107 |
| NS(=O)(=O)c1ccc(CCNC(=O)c2ccc(C#Cc3ccccc3)cc2)cc1 [CBK263089] | 95.9 |
| CC(C)c1ccc(/C=N/Nc2nc(-c3ccccc3)cs2)cc1 [CBK263091] | 94.5 |
| O=C(c1ccc(C#CC2(O)CCCCC2)cc1)N1CCN(Cc2ccccc2)CC1 [CBK263094] | 100 |
| CCOC(=O)c1cc2c(=O)n3cc(C)ccc3nc2n(Cc2cccnc2)c1=N [CBK263095] | 90.5 |
| Cc1nc(N/N=C/c2ccc3c(c2)OCO3)sc1C [CBK263098] | 106 |
| CC(C)(O)C#Cc1ccc(C(=O)N2CCN(Cc3ccccc3)CC2)cc1 [CBK263100] | 80.3 |
| NC(=O)c1c(NC(=O)CSc2ccc(Cl)cc2)sc2c1CCCC2 [CBK263101] | 77.7 |
| CCCc1ccc(OCC(=O)Nc2ccccc2C(N)=O)cc1 [CBK263103] | 88.7 |
| O=C(O)C(Cc1ccccc1)N1C(=O)/C(=C/c2ccc([N+](=O)[O-])cc2)SC1=S (stereo not drawn) [CBK263108] | 84.3 |
| O=C1NC(=Nc2ccccn2)SC1Cc1ccc(Br)cc1 (stereo not drawn) [CBK263109] | 82.3 |
| CC(C)(O)C#Cc1ccc(C(=O)NCCc2ccc(S(N)(=O)=O)cc2)cc1 [CBK263110] | 98.2 |
| Cc1c(Cc2ccccc2)c(N2CCN(C/C=C/c3ccccc3)CC2)n2c(nc3ccccc32)c1C#N [CBK263112] | 101 |
| Cc1noc(NS(=O)(=O)c2ccc(NC(=O)/C=C/c3ccc(Cl)cc3Cl)cc2)c1C [CBK263115] | 90.4 |
| O=C(O)COc1ccccc1/C=N/NC(=O)Cc1ccc(Br)c2ccccc12 [CBK263116] | 85.6 |
| NC(=O)c1ccccc1NC(=O)CCN1C(=O)c2cccc([N+](=O)[O-])c2C1=O [CBK263118] | 87.4 |
| CCOc1ccc2nc(NC3=NC(CC(=O)O)C(=O)N3)nc(C)c2c1 (stereo not drawn) [CBK263120] | 103 |

| SMILES | viability at 28.5 h, 10 µM [%] |
| --- | --- |
| N#C/C(=C/c1ccc(-c2ccc(S(N)(=O)=O)cc2)o1)C(=O)Nc1ccccc1 [CBK263123] | 119 |
| O=C1N/C(=N/N=C\c2cccc([N+](=O)[O-])c2)SC1Cc1ccc(Br)cc1 (stereo not drawn) [CBK263125] | 101 |
| NS(=O)(=O)c1ccc(-c2ccc(/C=C3/SC(=S)N(C4CCCCC4)C3=O)o2)cc1 [CBK263127] | 88 |
| CN1CCN(c2nc3ccccn3c(=O)c2/C=C2\SC(=S)N(CCc3ccccc3)C2=O)CC1 [CBK263131] | 110 |
| NC(=O)c1c(NC(=O)CCN2C(=O)c3cccc([N+](=O)[O-])c3C2=O)sc2c1CCCC2 [CBK263132] | 105 |
| CC1CCCC(C)N1CC(O)COCc1ccc2c(c1)OCO2 (stereo not drawn) [CBK263134C] | 86.3 |
| COc1ccc(CCNc2c(Cc3ccccc3)c(C)c(C#N)c3nc4ccccc4n23)cc1OC [CBK263135] | 93 |
| Cc1ccc(C(=O)N/C(=C\c2ccccc2F)c2n[nH]c(=S)[nH]2)cc1 [CBK263136] | 87.4 |
| Sc1nnc(COc2ccc(Cl)cc2Cl)n1Cc1ccccc1 [CBK263138] | 88.2 |
| N#Cc1c2c(c(NCCN3CCCCC3)n3c1nc1ccccc13)CCC2 [CBK263140] | 114 |
| C/C(=N\NC(=O)CCN1CCN(C)CC1)c1ccc(O)cc1 [CBK263142] | 92.2 |
| Cc1c(Cc2ccccc2)c(-n2ccnc2C)n2c(nc3ccccc32)c1C#N [CBK263144] | 92.4 |
| O=C(CC(=O)Nc1c(Cl)cccc1C(F)(F)F)Nc1c(Cl)cccc1C(F)(F)F [CBK263148] | 103 |
| Cc1c(Cc2ccccc2)c(N2CCN(Cc3ccccc3)CC2)n2c(nc3ccccc32)c1C#N [CBK263150] | 94.9 |
| CCOCCCNc1c2c(c(C#N)c3nc4ccccc4n13)CCC2 [CBK263151] | 93.5 |
| Cc1ccc2[nH]c3c(c2c1)CCCC3NCC(O)Cc1ccccc1 (stereo not drawn) [CBK263154] | 87.2 |
| O=C(O)CN(c1ccccc1[N+](=O)[O-])S(=O)(=O)c1ccccc1 [CBK263158] | 95.6 |
| O=[N+]([O-])c1ccc(CN2CCN(Cc3cccnc3)CC2)cc1 [CBK263161] | 109 |
| Cc1cc([N+](=O)[O-])ccc1NC(=O)Cn1cnc2c1c(=O)n(C)c(=O)n2C [CBK263162] | 105 |
| CN1CCN(/N=C/c2c(C(F)(F)F)[nH]n(-c3nc4ccccc4s3)c2=O)CC1 [CBK263163] | 92.4 |
| CCn1c2ccccc2c2cc(CN3CCN(Cc4cc(OC)cc(OC)c4)CC3)ccc21 [CBK263164] | 95.9 |

| SMILES | viability at 28.5 h, 10 µM [%] |
| --- | --- |
| O=C(CCN1CCOCC1)Nc1ccc(Br)cc1C(=O)c1ccccc1 [CBK263165] | 93 |
| Cc1ccc(S(=O)(=O)N(CC(=O)NC2CCCC2)Cc2ccccc2)cc1 [CBK263166] | 89.9 |
| Cc1nc2ccc(NC(=S)N3c4ccccc4CC3C)cc2nc1C (stereo not drawn) [CBK263169] | 62.5 |
| C=CCn1c(COc2ccc(Cl)cc2)nnc1SCC(=O)O [CBK263171] | 105 |
| COc1ccccc1N1CCN(/N=C\c2ccccc2OCC(=O)O)CC1 [CBK263173C] | 93.5 |
| COc1cc(/C=C2\N=C(c3cccs3)OC2=O)ccc1OCc1ccc(Cl)cc1 [CBK263176] | 101 |
| CCn1c(SCC(=O)N/N=C/C(C)=C/c2ccccc2)nc2ccccc21 [CBK263178] | 107 |
| C/C(=N/NC(=O)CSc1nc2ccccc2n1C)c1cccc([N+](=O)[O-])c1 [CBK263179] | 99.3 |
| C/C(=N\NC(=O)CSc1nc2ccccc2n1Cc1ccccc1)c1ccco1 [CBK263180] | 118 |
| O=C(/C=C/c1ccco1)Nc1sc2c(c1C(=O)O)CCC2 [CBK263181] | 97.7 |
| CCOC(=O)c1c(NC(=O)CSc2nnc(C)s2)sc2c1CCC2 [CBK263183] | 91.2 |
| Cc1cc(=O)oc2ccc(OCC(=O)Nc3ccc(S(=O)(=O)O)cc3)cc12 [CBK263185N] | 100 |
| CCOc1cccc(NC(=O)/C(C#N)=C\c2cc(C)n(-c3cccc(C(=O)O)c3)c2C)c1 [CBK263186] | 115 |
| Nn1cnn2c(SCc3ccccc3)nnc12 [CBK263188] | 112 |
| CCOc1cccc(NC(=O)/C(C#N)=C\c2cc(OC)c(O)cc2Br)c1 [CBK263189] | 95.2 |
| Cn1ccnc1SCC(=O)Nc1ccc(S(N)(=O)=O)cc1 [CBK263190] | 84.6 |
| Nn1cnn2c(SCc3ccc(Cl)cc3)nnc12 [CBK263193] | 106 |
| Nn1cnn2c(SCC(=O)c3ccccc3)nnc12 [CBK263194] | 99.8 |
| O=C(O)c1cccc(-c2ccc(/C=N/Nc3ccc([N+](=O)[O-])cn3)o2)c1 [CBK263196] | 89.9 |
| COc1ccc(C(=O)CSc2nnc3n(N)cnn23)cc1 [CBK263201] | 94.6 |
| CC(=O)c1ccc(NS(=O)(=O)c2cc(C(=O)Nc3ccccc3C(=O)O)ccc2Br)cc1 [CBK263203] | 97.2 |

| SMILES | viability at 28.5 h, 10 µM [%] |
| --- | --- |
| O=C(/C=C/c1cn(-c2ccccc2)nc1-c1cccnc1)c1ccc(-c2ccccc2)cc1 [CBK263213] | 95.5 |
| CCC(Sc1ncccc1C(=O)O)C(=O)O (stereo not drawn) [CBK263216] | 98.4 |
| CCC1(CC)Cc2ccccc2-c2nc(NN)n(Cc3ccccc3)c(=O)c21 [CBK263217] | 102 |
| Cc1ccc(C(=O)Nc2ccc(C(=O)O)cc2)cc1S(=O)(=O)NCc1ccccc1 [CBK263219] | 101 |
| O=C(O)c1cccc(S(=O)(=O)N(CCO)CCO)c1 [CBK263221] | 93.2 |
| O=C(Nc1ccccc1[N+](=O)[O-])c1cc(S(=O)(=O)Nc2ccccn2)ccc1Cl [CBK263229] | 87.8 |
| C=CCn1c2ccccc2c2nnc(SCC(=O)OCN3C(=O)c4ccccc4C3=O)nc21 [CBK263231] | 106 |
| O=C(Nc1ccc(Br)cc1)C1CC(O)CN1C(=O)OCc1ccccc1 (stereo not drawn) [CBK263233] | 101 |
| O=C(Nc1ccccc1C(=O)O)c1cc(S(=O)(=O)Nc2cccc([N+](=O)[O-])c2)ccc1Cl [CBK263234] | 90.3 |
| Cc1cc(CN2CCOCC2)oc1C(=O)O [CBK263239C] | 104 |
| O=C(Nc1ccccc1[N+](=O)[O-])c1cc(S(=O)(=O)NCc2ccccc2)c(Cl)cc1Cl [CBK263240] | 91.5 |
| O=C(O)c1cccc(NS(=O)(=O)c2ccc(Cl)c(C(=O)Nc3ccc(Br)cc3)c2)c1 [CBK263241] | 87 |
| CN(C)S(=O)(=O)c1ccc(C(=O)Nc2ccc(Br)cc2C(=O)c2ccccc2)cc1 [CBK263243] | 81.1 |
| O=C(O)C[S+]([O-])c1ccccc1C(=O)O (stereo not drawn) [CBK263244] | 96.3 |
| O=C(Nc1ccccc1C(=O)O)c1cc(S(=O)(=O)Nc2ccc(F)cc2)ccc1Cl [CBK263248] | 120 |
| O=S(=O)(NCc1ccccc1)c1cccc(S(=O)(=O)NCc2ccccc2)c1 [CBK263250] | 91.5 |
| O=S(=O)(NCc1ccccc1)c1ccc(Cl)c(S(=O)(=O)NCc2ccccc2)c1 [CBK263251] | 81.9 |
| O=C(Nc1ccccc1-c1nc2ccccc2[nH]1)c1ccc(S(=O)(=O)N2CCCC2)cc1 [CBK263252] | 88.5 |
| Cc1cc(-c2ccc([N+](=O)[O-])cc2)nc2ccc3ccccc3c12 [CBK263253C] | 90.3 |
| Nc1ccc(S(=O)(=O)Nc2nccc(/C=C/c3ccc(Cl)cc3)n2)cc1 [CBK263254] | 105 |

Same assay, conditions: human, hela cells, % viability, bulk resorufin, single well

| SMILES | viability at 28.5 h, 10 µM [%] |
| --- | --- |
| Cc1ccc(CN2CCN(Cc3ccc([N+](=O)[O-])cc3)CC2)cc1 [CBK263168] | 92.9 |

Reference: article PMC12040169 (PLOS Biology, 2025)
